Source: patent US11856970B2, “Bacillus subtilis for animal feed” (CHR. HANSEN A/S, priority 2018, dated 2024)

Tested on: E. coli
Assay: Agar well diffusion, screening for inhibition of E. coli
Type: cell-based, Escherichia coli
Settings: E. coli O147:K89 F4 H19
Description: The seven pathogenic E. coli and Salmonella spp. strains were each suspended in MRD until McFarland 0.5 was obtained and 10 μL of each pathogen suspension was diluted in approximately 35 ml melted LB agar (max. 42° C.). The inoculated agar was poured into Omni Tray Single-well plates, Immuno TSP plates were attached. After drying the immune TSP plates were removed and the wells were inoculated with 5 μL overnight culture (triplicates) of Bacillus test strains. The plates were incubated aerobically at 30° C. for 48 hours. For the E. coli plates, two replicate plates were used (n=2); for the 10 Salmonella spp. plates, one replicate plate was used (n=1).
The following positioning of the Bacillus subtilis strains on the plates containing the pathogens was used:
The concentration of E. coli and Salmonella spp. in the inoculated agar was estimated to be 2.9×10^4 CFU/ml.

O=C(O)c1cn(C2CC2)c2cc(N3CCNCC3)c(F)cc2c1=O [ciprofloxacin]
inhibition zones (FIG. 2, in words): Inhibition is also seen
